Measured values: patent US10294202B2, “Pyrrolidinones as herbicides” (FMC Corporation, priority 2013, dated 2019)

Assays:
Test in all cases: Test C pre-/postemergence herbicide test
[1] = test system: sunflower; format: in vivo, Helianthus annuus; conditions: Preemergence
In short: (§1)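 Greenhouse plants scored visually against untreated controls 13–15 days after treatment, 0 = no effect, 100 = complete control. Test chemicals in a non-phytotoxic solvent with surfactant were applied either to soil (loam/sand) at planting or to foliage of 1- to 4-leaf plants, 2–18 cm tall.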

[2] = test system: cupgrass, woolly; format: in vivo, Eriochloa villosa; conditions: Preemergence; for Cupgrass, Woolly plant response rating: 31 g ai/ha
In short: as §1

[3] = test system: foxtail, green; format: in vivo, Setaria viridis; conditions: Preemergence; for Foxtail, Green plant response rating: 31 g ai/ha
In short: as §1

[4] = test system: cocklebur; format: in vivo, Xanthium strumarium; conditions: Preemergence
In short: as §1

[5] = test system: surinam grass; format: in vivo, Brachiaria decumbens; conditions: Preemergence
In short: as §1

[6] = test system: nightshade; format: in vivo, Solanum ptycanthum; conditions: Preemergence
In short: as §1

[7] = test system: goosegrass; format: in vivo, Eleusine indica; conditions: Preemergence; for Goosegrass plant response rating: 31 g ai/ha
In short: as §1

[8] = test system: bromegrass, downy; format: in vivo, Bromus tectorum; conditions: Preemergence; for Bromegrass, Downy plant response rating: 31 g ai/ha
In short: as §1

[9] = test system: bermudagrass; format: in vivo, Cynodon dactylon; conditions: Preemergence; for Bermudagrass plant response rating: 31 g ai/ha
In short: as §1

[10] = 125 g ai/ha, scale 0 to 100 (0 no effect, 100 complete control)
[11] = scale 0 to 100 (0 no effect, 100 complete control)
[12] = 250 g ai/ha, scale 0 to 100 (0 no effect, 100 complete control)
[13] = 31 g ai/ha, scale 0 to 100, 0 is no effect and 100 is complete control
[14] = scale 0 to 100, 0 is no effect and 100 is complete control

Row | SMILES | Plant response rating Sunflower ([1]; 62 g ai/ha, scale 0 to 100) | Plant response rating Sunflower [1, 10] | Plant response rating, Cupgrass, Woolly ([2]; 62 g ai/ha, scale 0 to 100) | Plant response rating, Cupgrass, Woolly [2, 10] | Plant response rating, Cupgrass, Woolly [2, 12] | Plant response rating, Foxtail, Green ([3]; 62 g ai/ha, scale 0 to 100) | Plant response rating, Foxtail, Green [3, 10] | Plant response rating, Foxtail, Green [3, 12] | Plant response rating, Surinam Grass ([5]; 62 g ai/ha, scale 0 to 100) | Plant response rating, Surinam Grass [5, 10] | Plant response rating, Nightshade ([6]; 62 g ai/ha, scale 0 to 100) | Plant response rating, Nightshade [6, 10] | Plant response rating, Goosegrass ([7]; 62 g ai/ha, scale 0 to 100) | Plant response rating, Goosegrass [7, 10] | Plant response rating, Bromegrass, Downy ([8]; 62 g ai/ha, scale 0 to 100) | Plant response rating, Bromegrass, Downy [8, 10] | Plant response rating, Bromegrass, Downy [8, 12] | Plant response rating, Bermudagrass ([9]; 62 g ai/ha, scale 0 to 100) | Plant response rating, Bermudagrass [9, 10] | Plant response rating, Bermudagrass [9, 12] | also measured
1 | O=C1NCC(c2cccc(Br)c2)C1C(=O)Nc1cccc(F)c1F (stereo not shown) [Compound 64] | 0 | 0 | 70 | 85 | 90 | 85 | 90 | 98 | 50 | 65 | 0 | 0 | 20 | 25 | 0 | 0 | 50 | 0 | 25 | 55 | Cupgrass, Woolly plant response rating [2, 11]: 30; Foxtail, Green plant response rating [3, 11]: 70; Plant response rating, Cocklebur ([4]; 62 g ai/ha, scale 0 to 100): 0; Goosegrass plant response rating [7, 11]: 20; Bromegrass, Downy plant response rating [8, 11]: 0; Bermudagrass plant response rating [9, 11]: 0
2 | O=C1NCC(c2cccc(Br)c2)C1C(=O)Nc1ccccc1F (stereo not shown) [Compound 66] | 0 | 0 | 75 | 80 | 85 | 80 | 90 | 98 | 0 | 75 | 0 | 0 | 5 | 10 | 0 | 0 | 5 | 0 | 0 | 0 | Sunflower plant response rating [1, 13]: 0; Cupgrass, Woolly plant response rating [2, 14]: 10; Foxtail, Green plant response rating [3, 14]: 50; Cocklebur plant response rating [4, 13]: 0; Surinam Grass plant response rating [5, 13]: 0; Nightshade plant response rating [6, 13]: 0; Goosegrass plant response rating [7, 14]: 5; Bromegrass, Downy plant response rating [8, 14]: 0; Bermudagrass plant response rating [9, 14]: 0
